# Experimental data published in PubChem BioAssay AID2799 (Sanford-Burnham Center for Chemical Genomics, 2010).
# Test system: HEK293 NOD2/MDP-induced NF-kB reporter, inhibition
# Assay: inhibition of MDP-driven NOD2 NF-kB reporter – cell-based, set 3, SAR follow-up (AID 2799)
compound,measurement,value
CCCCn1c(SCC(=O)Nc2nnc(CC)s2)nc2c1c(=O)n(C)c(=O)n2C,IC50,7.12 µM
